The source made the active and inactive calls. The rule behind the calls is not given here.
Tests used:
[1] = molecular target: T1, Dihydrofolate reductase (Bos taurus, UniProt P00376); assay: Inhibition of bovine liver DHFR
T1 sequence (P00376 whole entry): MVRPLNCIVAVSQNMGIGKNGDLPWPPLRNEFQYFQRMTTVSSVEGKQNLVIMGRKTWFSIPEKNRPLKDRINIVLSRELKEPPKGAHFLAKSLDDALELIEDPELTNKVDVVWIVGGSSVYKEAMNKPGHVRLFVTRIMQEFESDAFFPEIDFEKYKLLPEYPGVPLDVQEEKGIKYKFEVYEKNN

[2] = tested on: Staphylococcus aureus; assay: Antimicrobial activity against Staphylococcus aureus assessed as inhibition zone at 200 ug/disk after 24 hrs by disc-diffusion method; type: functional; conditions: read-out: IZ
[3] = tested on: Bacillus subtilis; assay: Antimicrobial activity against Bacillus subtilis assessed as inhibition zone at 200 ug/disk after 24 hrs by disc-diffusion method; type: functional; conditions: read-out: IZ
[4] = tested on: Escherichia coli; assay: Antimicrobial activity against Escherichia coli assessed as inhibition zone at 200 ug/disk after 24 hrs by disc-diffusion method; type: functional; conditions: read-out: IZ
[5] = tested on: Pseudomonas aeruginosa; assay: Antimicrobial activity against Pseudomonas aeruginosa assessed as inhibition zone at 200 ug/disk after 24 hrs by disc-diffusion method; type: functional; conditions: read-out: IZ
[6] = tested on: Candida albicans; assay: Antimicrobial activity against Candida albicans assessed as inhibition zone at 200 ug/disk after 24 hrs by disc-diffusion method; type: functional; conditions: read-out: IZ
[7] = tested on: CCRF-CEM; assay: Growth inhibition of human CCRF-CEM cells at 10 uM after 48 hrs; type: functional
[8] = tested on: HL-60(TB); assay: Growth inhibition of human HL-60(TB) cells at 10 uM after 48 hrs; type: functional
[9] = tested on: K562; assay: Growth inhibition of human K562 cells at 10 uM after 48 hrs; type: functional
[10] = tested on: MOLT-4; assay: Growth inhibition of human MOLT4 cells at 10 uM after 48 hrs; type: functional
[11] = tested on: RPMI-8226; assay: Growth inhibition of human RPMI8226 cells at 10 uM after 48 hrs; type: functional
[12] = tested on: SR; assay: Growth inhibition of human SR cells at 10 uM after 48 hrs; type: functional
[13] = tested on: A549; assay: Growth inhibition of human A549 cells at 10 uM after 48 hrs; type: functional
[14] = tested on: HOP-92; assay: Growth inhibition of human HOP92 cells at 10 uM after 48 hrs; type: functional
[15] = tested on: NCI-H226; assay: Growth inhibition of human NCI-H226 cells at 10 uM after 48 hrs; type: functional
[16] = tested on: NCI-H522; assay: Growth inhibition of human NCI-H522 cells at 10 uM after 48 hrs; type: functional
[17] = tested on: HCT-116; assay: Growth inhibition of human HCT116 cells at 10 uM after 48 hrs; type: functional
[18] = tested on: HCT-15; assay: Growth inhibition of human HCT15 cells at 10 uM after 48 hrs; type: functional
[19] = tested on: HT-29; assay: Growth inhibition of human HT-29 cells at 10 uM after 48 hrs; type: functional
[20] = tested on: KM12; assay: Growth inhibition of human KM12 cells at 10 uM after 48 hrs; type: functional
[21] = tested on: SF-295; assay: Growth inhibition of human SF295 cells at 10 uM after 48 hrs; type: functional
[22] = tested on: SF-539; assay: Growth inhibition of human SF539 cells at 10 uM after 48 hrs; type: functional
[23] = tested on: SNB-19; assay: Growth inhibition of human SNB19 cells at 10 uM after 48 hrs; type: functional
[24] = tested on: U-251; assay: Growth inhibition of human U251 cells at 10 uM after 48 hrs; type: functional
[25] = tested on: Malme-3M; assay: Growth inhibition of human MALME-3M cells at 10 uM after 48 hrs; type: functional
[26] = tested on: MDA-MB-435; assay: Growth inhibition of human MDA-MB-435 cells at 10 uM after 48 hrs; type: functional
[27] = tested on: SK-MEL-5; assay: Growth inhibition of human SK-MEL-5 cells at 10 uM after 48 hrs; type: functional
[28] = tested on: UACC-257; assay: Growth inhibition of human UACC257 cells at 10 uM after 48 hrs; type: functional
[29] = tested on: UACC-62; assay: Growth inhibition of human UACC62 cells at 10 uM after 48 hrs; type: functional
[30] = tested on: OVCAR-4; assay: Growth inhibition of human OVCAR4 cells at 10 uM after 48 hrs; type: functional
[31] = tested on: 786-0; assay: Growth inhibition of human 786-0 cells at 10 uM after 48 hrs; type: functional
[32] = tested on: A498; assay: Growth inhibition of human A498 cells at 10 uM after 48 hrs; type: functional
[33] = tested on: CAKI-1; assay: Growth inhibition of human CAKI-1 cells at 10 uM after 48 hrs; type: functional
[34] = tested on: RXF 393; assay: Growth inhibition of human RXF393 cells at 10 uM after 48 hrs; type: functional
[35] = tested on: UO-31; assay: Growth inhibition of human UO31 cells at 10 uM after 48 hrs; type: functional
[36] = tested on: PC-3; assay: Growth inhibition of human PC3 cells at 10 uM after 48 hrs; type: functional
[37] = tested on: MCF7; assay: Growth inhibition of human MCF7 cells at 10 uM after 48 hrs; type: functional
[38] = tested on: MDA-MB-231; assay: Growth inhibition of human MDA-MB-231 cells at 10 uM after 48 hrs; type: functional
[39] = tested on: Hs-578T; assay: Growth inhibition of human Hs 578T cells at 10 uM after 48 hrs; type: functional
[40] = tested on: T47D; assay: Growth inhibition of human T47D cells at 10 uM after 48 hrs; type: functional
[41] = tested on: MDA-MB-468; assay: Growth inhibition of human MDA-MB-468 cells at 10 uM after 48 hrs; type: functional
[42] = tested on: HOP-62; assay: Growth inhibition of human HOP62 cells at 10 uM after 48 hrs; type: functional
[43] = tested on: SK-MEL-28; assay: Growth inhibition of human SK-MEL-28 cells at 10 uM after 48 hrs; type: functional, cell-based

Cc1ccc2nc(Sc3nnc(N)s3)n(-c3ccc(Oc4ccccc4)cc3)c(=O)c2c1
IC50 [1]: 0.1 µM
zone of inhibition at 200 µg/disc [2]: 8 mm
zone of inhibition at 200 µg/disc [3]: 8 mm
zone of inhibition at 200 µg/disc [4]: 8 mm
zone of inhibition at 200 µg/disc [5]: 8 mm
zone of inhibition at 200 µg/disc [6]: 8 mm
growth inhibition (GI) [7]: inactive
growth inhibition (GI) [8]: inactive
growth inhibition (GI) [9]: inactive
growth inhibition (GI) [10]: inactive
growth inhibition (GI) [11]: inactive
growth inhibition (GI) [12]: inactive
growth inhibition (GI) [13]: inactive
growth inhibition (GI) [14]: inactive
growth inhibition (GI) [15]: inactive
growth inhibition (GI) [16]: inactive
growth inhibition (GI) [17]: inactive
growth inhibition (GI) [18]: inactive
growth inhibition (GI) [19]: inactive
growth inhibition (GI) [20]: inactive
growth inhibition (GI) [21]: inactive
growth inhibition (GI) [22]: inactive
growth inhibition (GI) [23]: inactive
growth inhibition (GI) [24]: inactive
growth inhibition (GI) [25]: inactive
growth inhibition (GI) [26]: inactive
growth inhibition (GI) [27]: inactive
growth inhibition (GI) [28]: inactive
growth inhibition (GI) [29]: inactive
growth inhibition (GI) [30]: inactive
growth inhibition (GI) [31]: inactive
growth inhibition (GI) [32]: inactive
growth inhibition (GI) [33]: inactive
growth inhibition (GI) [34]: inactive
growth inhibition (GI) [35]: inactive
growth inhibition (GI) [36]: inactive
growth inhibition (GI) [37]: inactive
growth inhibition (GI) [38]: inactive
growth inhibition (GI) [39]: inactive
growth inhibition (GI) [40]: inactive
growth inhibition (GI) [41]: inactive
growth inhibition (GI) [42]: inactive
growth inhibition (GI) [43]: inactive

Cc1ccc2nc(Sc3nnc(N)s3)n(-c3ccccc3)c(=O)c2c1
IC50 [1]: 7 µM
zone of inhibition at 200 µg/disc [2]: 8 mm
zone of inhibition at 200 µg/disc [3]: 8 mm
zone of inhibition at 200 µg/disc [4]: 8 mm
zone of inhibition at 200 µg/disc [5]: 8 mm
zone of inhibition at 200 µg/disc [6]: 8 mm
growth inhibition (GI) [7]: inactive
growth inhibition (GI) [8]: inactive
growth inhibition (GI) [9]: inactive
growth inhibition (GI) [10]: inactive
growth inhibition (GI) [11]: inactive
growth inhibition (GI) [12]: inactive
growth inhibition (GI) [13]: inactive
growth inhibition (GI) [14]: inactive
growth inhibition (GI) [15]: inactive
growth inhibition (GI) [16]: inactive
growth inhibition (GI) [17]: inactive
growth inhibition (GI) [18]: inactive
growth inhibition (GI) [19]: inactive
growth inhibition (GI) [20]: inactive
growth inhibition (GI) [21]: inactive
growth inhibition (GI) [22]: inactive
growth inhibition (GI) [23]: inactive
growth inhibition (GI) [24]: inactive
growth inhibition (GI) [25]: inactive
growth inhibition (GI) [26]: inactive
growth inhibition (GI) [27]: inactive
growth inhibition (GI) [28]: inactive
growth inhibition (GI) [29]: inactive
growth inhibition (GI) [30]: inactive
growth inhibition (GI) [31]: inactive
growth inhibition (GI) [32]: inactive
growth inhibition (GI) [33]: inactive
growth inhibition (GI) [34]: inactive
growth inhibition (GI) [35]: inactive
growth inhibition (GI) [36]: inactive
growth inhibition (GI) [37]: inactive
growth inhibition (GI) [38]: inactive
growth inhibition (GI) [39]: inactive
growth inhibition (GI) [40]: inactive
growth inhibition (GI) [41]: inactive
growth inhibition (GI) [42]: inactive
growth inhibition (GI) [43]: inactive

COc1cc2nc(Sc3nnc(N)s3)n(-c3ccc(C)cc3)c(=O)c2cc1OC
IC50 [1]: 1 µM
zone of inhibition at 200 µg/disc [2]: 14 mm
zone of inhibition at 200 µg/disc [3]: 15 mm
zone of inhibition at 200 µg/disc [4]: 8 mm
zone of inhibition at 200 µg/disc [5]: 8 mm
zone of inhibition at 200 µg/disc [6]: 8 mm
growth inhibition (GI) [7]: inactive
growth inhibition (GI) [8]: inactive
growth inhibition (GI) [9]: inactive
growth inhibition (GI) [10]: inactive
growth inhibition (GI) [11]: inactive
growth inhibition (GI) [12]: inactive
growth inhibition (GI) [13]: inactive
growth inhibition (GI) [14]: inactive
growth inhibition (GI) [15]: inactive
growth inhibition (GI) [16]: inactive
growth inhibition (GI) [17]: inactive
growth inhibition (GI) [18]: inactive
growth inhibition (GI) [19]: inactive
growth inhibition (GI) [20]: inactive
growth inhibition (GI) [21]: inactive
growth inhibition (GI) [22]: inactive
growth inhibition (GI) [23]: inactive
growth inhibition (GI) [24]: inactive
growth inhibition (GI) [25]: inactive
growth inhibition (GI) [26]: inactive
growth inhibition (GI) [27]: inactive
growth inhibition (GI) [28]: inactive
growth inhibition (GI) [29]: inactive
growth inhibition (GI) [30]: inactive
growth inhibition (GI) [31]: inactive
growth inhibition (GI) [32]: inactive
growth inhibition (GI) [33]: inactive
growth inhibition (GI) [34]: inactive
growth inhibition (GI) [35]: inactive
growth inhibition (GI) [36]: inactive
growth inhibition (GI) [37]: inactive
growth inhibition (GI) [38]: inactive
growth inhibition (GI) [39]: inactive
growth inhibition (GI) [40]: inactive
growth inhibition (GI) [41]: inactive
growth inhibition (GI) [42]: inactive
growth inhibition (GI) [43]: inactive
